Experimental data reported in patent US20220016101A1 (ACADIA Pharmaceuticals Inc., priority 2018, published 2022).

Test system: patients with MDD and an inadequate response to an SSRI or SNRI
Experiment: Massachusetts General Hospital Sexual Functioning Index (MGH-SFI), Study ACP-103-042
Type: in vivo, human
Text: “Massachusetts General Hospital Sexual Functioning Index (MGH-SFI)” is described, for instance, in Labbate and Lare, 2001, Psychother Psychosom. 70(4):221-225. This is a patient facing questionnaire that quantifies sexual dysfunction into 5 functional domains (“interest in sex,” “sexual arousal,” “ability to achieve orgasm,” “ability to maintain erection” (males only), and “sexual satisfaction”). Patients rate each item using a 6-point scale ranging from 1 (good function) to 6 (poor function). High scores indicate poor sexual functioning. […] The determination of the subject's status and eligibility for randomization in Stage 2 was made in a double-blind manner. […] Sexual functioning was assessed using the Massachusetts General Hospital Sexual Functioning Index or MGH-SFI (Labbate and Lare, 2001, Psychother Psychosom. 70(4):221-225). This is a patient facing questionnaire that quantifies sexual dysfunction into 5 functional domains (“interest in sex,” “sexual arousal,” “ability to achieve orgasm,” “ability to maintain erection” [malesonly], and “sexual satisfaction”). Patients rate each item using a 6-point scale ranging from 1 (good function) to 6 (poor function). The time frame for this scale is the past month. This scale was administered at baseline and Week 5 in both stages of the study. High scores indicate poor sexual functioning. In ACP-103-042 the mean scores for MGH-SFI at Baseline was calculated over all 5 domains for males and the 4 domains for females. For MGH-SFI (follow-up version) at Study Weeks 5 and 10, the mean was calculated in the same way as MGH-SFI at Baseline. […] Tables 10-27 summarize the detailed data of MGH-SFI individual items of the overall study group (Tables 10-15), the subgroup of age of <=50 (Tables 16-21) and the subgroup of age of >50 (Table 21-26). In Tables 9-26, ANCOVA=analysis of covariance; OC=observed cases; LSM=least squares mean; CI=confidence interval; SD=standard deviation; SE=standard error. Stage 1: Baseline=Study Week 0, Week 5=Study Week 5; Stage 2: Baseline=Study Week 5, Week 5=Study Weeks 10. LSM from the stage-specific ANCOVA analysis with the change from baseline as the outcome, treatment group as a factor, and the corresponding Baseline value as a covariate. 2-sided p-value for treatment difference from the stage-specific ANCOVA analysis. An treatment effect size (Cohen's d) is calculated using the formula: Effect Size=Least Square mean difference between PIM and PBO/SD. The corresponding 95% confidence interval for an effect size is calculated based on the theoretical probability distribution of the effect size. […] Tables 10-15 and 28-38 summarize the detailed data of MGH-SFI individual items of the overall study group (Tables 10-15), the female subgroup (Tables 33-37) and the male subgroup (Table 38-43). An treatment effect size (Cohen's d) is calculated using the formula: Effect Size=Least Square mean difference between PIM and PBO/SD. The corresponding 95% confidence interval for an effect size is calculated based on the theoretical probability distribution of the effect size. In Tables 10-15 and 28-38, ANCOVA=analysis of covariance; OC=observed cases; LSM=least squares mean; CI=confidence interval; SD=standard deviation; SE=standard error. Stage 1: Baseline=Study Week 0, Week 5=Study Week 5; Stage 2: Baseline=Study Week 5, Week 5=Study Weeks 10. LSM from the stage-specific ANCOVA analysis with the change from baseline as the outcome, treatment group as a factor, and the corresponding Baseline value as a covariate. 2-sided p-value for treatment difference from the stage-specific ANCOVA analysis. An treatment effect size (Cohen's d) is calculated using the formula: Effect Size=Least Square mean difference between PIM and PBO/SD. The corresponding 95% confidence interval for an effect size is calculated based on the theoretical probability distribution of the effect size.

[1] = Stage 2, Overall Study Group, 34 mg QD + SSRI/SNRI
[2] = Stage 2, Subgroup of <=50 Years
[3] = Stage 2, Subgroup of <=50 Years Old
[4] = Stage 2, Subgroup of <=50 Years Old, 34 mg QD + SSRI/SNRI
[5] = female subgroup, Stage 1 (Study Week 0 to 5), PIM 34 mg
[6] = female subgroup, Stage 1 (Study Week 5), PIM 34 mg
[7] = female subgroup, Stage 1, positive = pimavanserin better than placebo
[8] = female subgroup, Stage 2 (Study Week 5 to 10), PIM 34 mg
[9] = female subgroup, Stage 2 (Study Week 10), PIM 34 mg
[10] = female subgroup, Stage 2, positive = pimavanserin better than placebo

CC(C)COc1ccc(CNC(=O)N(Cc2ccc(F)cc2)C2CCN(C)CC2)cc1 [pimavanserin, N-(4-Fluorophenylmethyl)-N-(1-methylpiperidin-4-yl)-N′-(4-(2-methylpropyloxy)phenylmethyl)carbamide]
MGH-SFI 05: Overall Sexual Satisfaction, Effect Size (Cohen's d) (Stage 2, Overall Study Group): 0.404 | MGH-SFI 05: Overall Sexual Satisfaction, Week 5 Median (Stage 2, Overall Study Group): 4.5 | MGH-SFI 06: Overall Improvement Since Last Medication Change, Effect Size (Cohen's d) (Stage 2, Overall Study Group): 0.227 | MGH-SFI 06: Overall Improvement Since Last Medication Change, Week 5 Median (Stage 2, Overall Study Group): 4.0 | MGH-SFI 01: Interest in Sex, Week 5 Mean (SE) [1]: 4.1 (0.28) | MGH-SFI 02: Ability to Get Sexually Aroused or Excited, Week 5 Mean (SE) [1]: 4.2 (0.27) | MGH-SFI 03: Ability to Achieve Orgasm, Week 5 Mean (SE) [1]: 4.3 (0.32) | MGH-SFI 04: (Men) Ability to Get and Maintain an Erection, Week 5 Mean (SE) [1]: 3.1 (0.54) | MGH-SFI 05: Overall Sexual Satisfaction, Week 5 Mean (SE) [1]: 4.1 (0.33) | MGH-SFI 06: Overall Improvement Since Last Medication Change, Week 5 Mean (SE) [1]: 3.6 (0.25) | MGH-SFI 01: Interest in Sex, Change from Baseline to Week 5 Mean (SE) [2]: −0.3 (0.21) | MGH-SFI 01: Interest in Sex, Change from Baseline to Week 5 Median [2]: 0.0 | MGH-SFI 01: Interest in Sex, Effect Size (Cohen's d) [2]: 0.081 | MGH-SFI 01: Interest in Sex, Week 5 Median [2]: 4.0 | MGH-SFI 02: Ability to Get Sexually Aroused or Excited, Change from Baseline to Week 5 Mean (SE) [3]: −0.3 (0.25) | MGH-SFI 02: Ability to Get Sexually Aroused or Excited, Change from Baseline to Week 5 Median [3]: −1.0 | MGH-SFI 02: Ability to Get Sexually Aroused or Excited, Effect Size (Cohen's d) [3]: 0.017 | MGH-SFI 02: Ability to Get Sexually Aroused or Excited, Week 5 Median [3]: 4.0 | MGH-SFI 03: Ability to Achieve Orgasm, Change from Baseline to Week 5 Mean (SE) [3]: −0.3 (0.25) | MGH-SFI 03: Ability to Achieve Orgasm, Change from Baseline to Week 5 Median [3]: 0.0 | MGH-SFI 03: Ability to Achieve Orgasm, Effect Size (Cohen's d) [3]: 0.449 | MGH-SFI 03: Ability to Achieve Orgasm, Week 5 Median [3]: 4.0 | MGH-SFI 02: Ability to Get Sexually Aroused or Excited, Week 5 Mean (SE) [4]: 4.1 (0.33) | MGH-SFI 03: Ability to Achieve Orgasm, Week 5 Mean (SE) [4]: 4.1 (0.40) | MGH-SFI 01: Interest in Sex, Week 5 Mean (SE) (Stage 2, Subgroup of <=50 Years, 34 mg QD + SSRI/SNRI): 3.9 (0.36) | MGH-SFI Items effect sizes, mean change from baseline to Week 5 vs placebo (female patients): > 0.5 | MGH-SFI 01: Interest in Sex, Change from Baseline to Week 5 Mean (SE) [5]: −0.9 (0.21) | MGH-SFI 01: Interest in Sex, Change from Baseline to Week 5 Median [5]: −1.0 | MGH-SFI 02: Ability to Get Sexually Aroused or Excited, Change from Baseline to Week 5 Mean (SE) [5]: −0.8 (0.17) | MGH-SFI 02: Ability to Get Sexually Aroused or Excited, Change from Baseline to Week 5 Median [5]: −1.0 | MGH-SFI 03: Ability to Achieve Orgasm, Change from Baseline to Week 5 Mean (SE) [5]: −1.2 (0.27) | MGH-SFI 03: Ability to Achieve Orgasm, Change from Baseline to Week 5 Median [5]: 0.0 | MGH-SFI 05: Overall Sexual Satisfaction, Change from Baseline to Week 5 Mean (SE) [5]: −0.9 (0.26) | MGH-SFI 05: Overall Sexual Satisfaction, Change from Baseline to Week 5 Median [5]: 0.0 | MGH-SFI 01: Interest in Sex, Week 5 Mean (SE) [6]: 3.7 (0.29) | MGH-SFI 01: Interest in Sex, Week 5 Median [6]: 4.0 | MGH-SFI 02: Ability to Get Sexually Aroused or Excited, Week 5 Mean (SE) [6]: 3.7 (0.28) | MGH-SFI 02: Ability to Get Sexually Aroused or Excited, Week 5 Median [6]: 3.5 | MGH-SFI 03: Ability to Achieve Orgasm, Week 5 Mean (SE) [6]: 3.8 (0.28) | MGH-SFI 03: Ability to Achieve Orgasm, Week 5 Median [6]: 4.0 | MGH-SFI 05: Overall Sexual Satisfaction, Week 5 Mean (SE) [6]: 3.8 (0.29) | MGH-SFI 05: Overall Sexual Satisfaction, Week 5 Median [6]: 3.5 | MGH-SFI 06: Overall Improvement Since Last Medication Change, Week 5 Mean (SE) [6]: 3.2 (0.17) | MGH-SFI 06: Overall Improvement Since Last Medication Change, Week 5 Median [6]: 4.0 | MGH-SFI 01: Interest in Sex, Effect Size (Cohen's d) [7]: 0.561 | MGH-SFI 02: Ability to Get Sexually Aroused or Excited, Effect Size (Cohen's d) [7]: 0.616 | MGH-SFI 03: Ability to Achieve Orgasm, Effect Size (Cohen's d) [7]: 0.749 | MGH-SFI 05: Overall Sexual Satisfaction, Effect Size (Cohen's d) [7]: 0.627 | MGH-SFI 06: Overall Improvement Since Last Medication Change, Effect Size (Cohen's d) [7]: 0.634 | MGH-SFI 01: Interest in Sex, Change from Baseline to Week 5 Mean (SE) [8]: −0.3 (0.17) | MGH-SFI 01: Interest in Sex, Change from Baseline to Week 5 Median [8]: 0.0 | MGH-SFI 02: Ability to Get Sexually Aroused or Excited, Change from Baseline to Week 5 Mean (SE) [8]: −0.3 (0.20) | MGH-SFI 02: Ability to Get Sexually Aroused or Excited, Change from Baseline to Week 5 Median [8]: 0.0 | MGH-SFI 03: Ability to Achieve Orgasm, Change from Baseline to Week 5 Mean (SE) [8]: −0.3 (0.20) | MGH-SFI 03: Ability to Achieve Orgasm, Change from Baseline to Week 5 Median [8]: 0.0 | MGH-SFI 05: Overall Sexual Satisfaction, Change from Baseline to Week 5 Mean (SE) [8]: −0.4 (0.26) | MGH-SFI 05: Overall Sexual Satisfaction, Change from Baseline to Week 5 Median [8]: 0.0 | MGH-SFI 01: Interest in Sex, Week 5 Mean (SE) [9]: 4.4 (0.34) | MGH-SFI 01: Interest in Sex, Week 5 Median [9]: 5.0 | MGH-SFI 02: Ability to Get Sexually Aroused or Excited, Week 5 Mean (SE) [9]: 4.5 (0.32) | MGH-SFI 02: Ability to Get Sexually Aroused or Excited, Week 5 Median [9]: 5.0 | MGH-SFI 03: Ability to Achieve Orgasm, Week 5 Mean (SE) [9]: 4.6 (0.38) | MGH-SFI 03: Ability to Achieve Orgasm, Week 5 Median [9]: 5.0 | MGH-SFI 05: Overall Sexual Satisfaction, Week 5 Mean (SE) [9]: 4.6 (0.38) | MGH-SFI 05: Overall Sexual Satisfaction, Week 5 Median [9]: 5.0 | MGH-SFI 06: Overall Improvement Since Last Medication Change, Week 5 Mean (SE) [9]: 3.6 (0.29) | MGH-SFI 06: Overall Improvement Since Last Medication Change, Week 5 Median [9]: 4.0 | MGH-SFI 01: Interest in Sex, Effect Size (Cohen's d) [10]: 0.073 | MGH-SFI 02: Ability to Get Sexually Aroused or Excited, Effect Size (Cohen's d) [10]: −0.064 | MGH-SFI 03: Ability to Achieve Orgasm, Effect Size (Cohen's d) [10]: 0.132
